Experimental findings from US7101878B1 (Agouron Pharmaceuticals, Inc., priority 1998, dated 2006) are described below.

Data set [1] can be described thus: Metabolism rate, pmol/min/mg at 1 μM, rat female. The format is in vitro ADME. The note with it: 1 μM compound.
In another data set the target is T1, human GnRH receptor (Homo sapiens, UniProt P30968).
T1 construct: expressed in transfected cells; host or cells: HEK 293 (hGnRH-R/293, from Dr. Stuart Sealfon)
T1 sequence (P30968 1-328): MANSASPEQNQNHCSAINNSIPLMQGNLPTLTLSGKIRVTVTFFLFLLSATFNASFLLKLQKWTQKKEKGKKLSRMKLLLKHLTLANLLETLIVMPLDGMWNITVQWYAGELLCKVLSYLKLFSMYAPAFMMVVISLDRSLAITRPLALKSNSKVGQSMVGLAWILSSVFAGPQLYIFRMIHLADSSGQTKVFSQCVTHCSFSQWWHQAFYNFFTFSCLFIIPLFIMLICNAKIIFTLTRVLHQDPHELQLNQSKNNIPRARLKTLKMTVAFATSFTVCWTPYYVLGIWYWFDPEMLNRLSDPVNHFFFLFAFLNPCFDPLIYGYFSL
Description: Radioligand binding, 125I-GnRH-A displacement, membranes of HEK 293 cells with human GnRH receptor. The note with it: read-out: hGnRH IC50. Summed up:
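After filtration and PBS washes, bound radioactivity was counted by scintillation and IC50 derived. Identical conditions applied for non-human receptors.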

The next data set concerns the target T2, rat GnRH receptor (Rattus norvegicus, UniProt P30969).
T2 sequence (P30969 1-327): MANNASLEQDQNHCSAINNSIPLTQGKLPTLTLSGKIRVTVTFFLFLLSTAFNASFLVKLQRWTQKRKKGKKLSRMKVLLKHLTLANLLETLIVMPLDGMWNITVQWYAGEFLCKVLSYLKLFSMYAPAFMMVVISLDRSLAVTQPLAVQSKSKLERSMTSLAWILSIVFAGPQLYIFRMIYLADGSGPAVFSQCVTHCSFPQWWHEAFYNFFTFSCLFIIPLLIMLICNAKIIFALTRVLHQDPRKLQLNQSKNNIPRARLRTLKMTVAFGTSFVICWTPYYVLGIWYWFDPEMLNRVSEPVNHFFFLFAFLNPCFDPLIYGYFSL
Description: Radioligand binding, 125I-GnRH-A, rat pituitary membranes. Also noted: membranes were prepared from rat pituitary; from tissue; host or cells: rat pituitary. The note with it: read-out: rGnRH IC50. Summed up:
(§1)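 Bound label captured on 0.1% polyethyleneimine-treated GF/C filters, washed three times with PBS, counted. IC50 derived; identical set-up for every species.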

The nature of data set [2]: Metabolism rate, pmol/min/mg at 1 μM, human. The data set is classed as in vitro ADME. The note with it: 1 μM compound.
Data set [3] can be described thus: Metabolism rate, pmol/min/mg at 1 μM, rat male. The format is in vitro ADME. The note with it: 1 μM compound.
Another data set has as its target T3, mouse GnRH receptor (Mus musculus, UniProt Q01776).
T3 construct: expressed in transfected cells; host or cells: 293 cells
T3 sequence (Q01776 1-327): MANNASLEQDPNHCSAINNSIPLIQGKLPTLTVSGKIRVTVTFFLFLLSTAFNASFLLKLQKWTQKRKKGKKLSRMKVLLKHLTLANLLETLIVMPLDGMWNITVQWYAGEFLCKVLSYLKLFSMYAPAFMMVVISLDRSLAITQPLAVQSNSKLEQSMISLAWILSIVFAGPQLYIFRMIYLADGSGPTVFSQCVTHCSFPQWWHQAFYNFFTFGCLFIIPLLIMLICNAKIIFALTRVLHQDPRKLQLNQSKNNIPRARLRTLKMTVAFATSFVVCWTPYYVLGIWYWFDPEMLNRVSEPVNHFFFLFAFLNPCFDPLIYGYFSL
Put plainly: Radioligand binding, 125I-GnRH-A, 293 cells expressing mouse GnRH receptors. The note with it: read-out: mGnRH IC50. Summed up:
as §1

A short description of data set [4]: Pharmacokinetic studies / bioavailability in rats. The format is in vivo, rat. The note with it: rat female; for Cmax / Tmax / half-life: female, rat, plasma; for Cmax / Tmax: po, 10 mg/kg, p.o. 10 mg/kg; for Cmax / Tmax / Fp.o.: 5 mg/ml solution in 10% DMSO 10% cremophor 80% saline.

As for `COc1cc2c(cc1Cc1ccc(C(=O)NCc3cccc(CNc4ccnc(NC[C@H]5CCCO5)n4)c3)o1)C(C)(C)CCC2(C)C` (stereo in doubt) [Compound 199], the “Rat female pmol/min/mg 1 μM” value in data set [1] is 181 pmol/min/mg. In addition, the IC50 on human GnRH receptor worked out at 92 nM. For the same compound, at rat GnRH receptor, the IC50 is 9.6 nM. Further, the “Human pmol/min/mg 1 μM” value in data set [2] was 181 pmol/min/mg. Besides, the “Rat male pmol/min/mg 1 μM” value in data set [3] was 3387 pmol/min/mg. For the same compound, at mouse GnRH receptor, the IC50 amounted to 15 nM. Further, in data set [4], the Cmax worked out at 80 nM, the Tmax was found to be 4 h, the half-life was 1.5 h and the Fp.o. was 10% (10 mg/kg)^10.

As for `CCOc1cccc(OCC)c1NC(=O)c1ccc(Cc2cc3c(cc2C)C(C)(C)CCC3(C)C)o1` [Compound 194], the “Rat female pmol/min/mg 1 μM” value in data set [1] is recorded as 205 pmol/min/mg. Also, the IC50 on human GnRH receptor is 18 nM; on rat GnRH receptor, 35 nM; at mouse GnRH receptor, 14 nM. For the same compound, the “Human pmol/min/mg 1 μM” value in data set [2] is 750 pmol/min/mg. For the same compound, the “Rat male pmol/min/mg 1 μM” value in data set [3] was determined as 5978 pmol/min/mg.

For `Cc1ccc(C(C)(C)C)cc1Cc1ccc(C(=O)Nc2ccc3[nH]ccc3c2)o1` [Compound 207], the “Rat female pmol/min/mg 1 μM” value in data set [1] came to 159 pmol/min/mg. In addition, on human GnRH receptor, the IC50 was found to be 200 nM. The “Human pmol/min/mg 1 μM” value in data set [2] is given as 157 pmol/min/mg. For the same compound, in data set [3], the “Rat male pmol/min/mg 1 μM” value amounted to 1236 pmol/min/mg. In data set [4], the Cmax came out at 2810 nM, the Tmax worked out at 1 h, the half-life is 1.6 h and the Fp.o. was 41% (10 mg/kg)^10.

Regarding `Cc1ccc(C(C)(C)C)cc1Cc1ccc(C(=O)NCc2cccc(CNc3ccnc(NC[C@H]4CCCO4)n3)c2)o1` [Compound 212], in data set [1], the “Rat female pmol/min/mg 1 μM” value turned out to be 430 pmol/min/mg. Further, the IC50 on human GnRH receptor is 80 nM. Besides, the half-inhibitory concentration (IC50) at rat GnRH receptor is 12 nM. Moreover, the “Human pmol/min/mg 1 μM” value in data set [2] is 322 pmol/min/mg. The “Rat male pmol/min/mg 1 μM” value in data set [3] is 3282 pmol/min/mg. Further, the half-maximal inhibitory concentration (IC50) on mouse GnRH receptor was found to be 62 nM. Besides, in data set [4], the peak level (Cmax) was 50 nM, the Tmax was found to be 1 h, the half-life was 1.6 h and the Fp.o. is recorded as 1% (10 mg/kg)^10.

As to `COc1cc2c(cc1Cc1ccc(C(=O)Nc3c(OC)cc(OC)c(C#N)c3OC)o1)C(C)(C)CCC2(C)C` [Compound 217], the “Rat female pmol/min/mg 1 μM” value in data set [1] turned out to be 203 pmol/min/mg. Besides, on human GnRH receptor, the half-inhibitory concentration (IC50) turned out to be 29 nM. On rat GnRH receptor, the 50% inhibitory concentration (IC50) stood at 21 nM. Also, the “Human pmol/min/mg 1 μM” value in data set [2] is listed as 483 pmol/min/mg. The “Rat male pmol/min/mg 1 μM” value in data set [3] was 953 pmol/min/mg. In addition, at mouse GnRH receptor, the IC50 was 11 nM. For the same compound, in data set [4], the peak level (Cmax) was 100 nM, the time of peak concentration (Tmax) is 1 h, the half-life was 3.8 h and the Fp.o. is on record as 16% (10 mg/kg)^10.

Regarding `COc1cc(OC)c(NC(=O)c2ccc(Cc3cc4c(cc3C)OCCC4(C)C)o2)c(OC)c1` [Compound 221], the “Rat female pmol/min/mg 1 μM” value in data set [1] came out at 223 pmol/min/mg. Moreover, the IC50 at human GnRH receptor came out at 15 nM. Further, on rat GnRH receptor, the IC50 stood at 11 nM. In addition, the “Human pmol/min/mg 1 μM” value in data set [2] was found to be 116 pmol/min/mg. The “Rat male pmol/min/mg 1 μM” value in data set [3] worked out at 528 pmol/min/mg. Besides, the IC50 on mouse GnRH receptor stood at 9.2 nM. Also, in data set [4], the Cmax was 340 nM, the time of peak concentration (Tmax) is 1 h, the half-life is 3 h and the Fp.o. is 41% (10 mg/kg)^10.

As for `COc1cc(OC)c(NC(=O)c2ccc(Cc3c(C)ccc4c3OCCC4(C)C)o2)c(OC)c1` [Compound 222], the “Rat female pmol/min/mg 1 μM” value in data set [1] was 167 pmol/min/mg. The half-maximal inhibitory concentration (IC50) at human GnRH receptor worked out at 110 nM. Further, the IC50 at rat GnRH receptor was 78 nM. Also, in data set [2], the “Human pmol/min/mg 1 μM” value turned out to be 115 pmol/min/mg. In addition, the “Rat male pmol/min/mg 1 μM” value in data set [3] is reported as 575 pmol/min/mg. Further, the IC50 at mouse GnRH receptor came to 65 nM. Further, in data set [4], the highest level (Cmax) was 810 nM, the Tmax is 1.5 h, the half-life was 3.2 h and the Fp.o. was 54% (10 mg/kg)^10.
